From ChEMBL document CHEMBL1201862, “PubChem BioAssay data set” (2004)
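Five concentrations, 48 hours, 96-well plates. GI50 = concentration required for 50% inhibition of growth.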 Activity calls are given as the source filed them. Rule as the data show it: active = GI50 up to about 1.1 µM and inactive = higher.

Columns and labels:
Assay in all cases: NCI tumour cell line growth inhibition, 48 h
RXF 393 = tested on: RXF 393
HCT-116 = tested on: HCT-116
BT-549 = tested on: BT-549
MDA-MB-231 = tested on: MDA-MB-231
Malme-3M = tested on: Malme-3M
HT-29 = tested on: HT-29
NCI/ADR-RES = tested on: NCI/ADR-RES
A549 = tested on: A549
SF-539 = tested on: SF-539
HL-60 = tested on: HL-60
MDA-N = tested on: MDA-N
ACHN = tested on: ACHN
M14 = tested on: M14
OVCAR-8 = tested on: OVCAR-8
DU-145 = tested on: DU-145
HCT-15 = tested on: HCT-15
SNB-75 = tested on: SNB-75
SK-OV-3 = tested on: SK-OV-3

| Structure (SMILES) | GI50 (RXF 393) | GI50 (HCT-116) | GI50 (BT-549) | GI50 (MDA-MB-231) | GI50 (Malme-3M) | GI50 (HT-29) | GI50 (NCI/ADR-RES) | GI50 (A549) | GI50 (SF-539) | GI50 (HL-60) | GI50 (MDA-N) | GI50 (ACHN) | GI50 (M14) | GI50 (OVCAR-8) | GI50 (DU-145) | GI50 (HCT-15) [µM] | GI50 (SNB-75) | GI50 (SK-OV-3) |
| --- | --- | --- | --- | --- | --- | --- | --- | --- | --- | --- | --- | --- | --- | --- | --- | --- | --- | --- |
| COc1cc(C2CC(C)(O)Oc3cc4c(cc32)OCO4)cc(OC)c1OC (centres undefined) | 0.137 µM (active) | 0.449 µM (active) | 0.583 µM (active) | 0.252 µM (active) | 0.205 µM (active) | 0.334 µM (active) | 0.233 µM (active) | 2.49 µM (inactive) | 0.195 µM (active) | 0.247 µM (active) | 0.166 µM (active) | 0.708 µM (active) | 0.466 µM (active) | 0.421 µM (active) | 0.546 µM (active) | 0.521 |  |  |
| CCn1c(=O)c2c3ccc(OC)cc3[nH]c2c2ccc(OC)cc21 | 29.3 µM (inactive) | 30.2 µM (inactive) | 79.4 µM (inactive) | 57 µM (inactive) | 61 µM (inactive) | 38.3 µM (inactive) | 32.9 µM (inactive) | 59.7 µM (inactive) | 52.5 µM (inactive) |  | 62.8 µM (inactive) | 55.5 µM (inactive) | 36.1 µM (inactive) | 73.3 µM (inactive) | 43.9 µM (inactive) | 41.2 | 19.8 µM (inactive) | 80.7 µM (inactive) |
| COc1ccc(/C=N\NC(=O)Nc2cccc3ccccc23)cc1 | > 10 µM (inactive) | 13.7 µM (inactive) | 29.9 µM (inactive) | 20.5 µM (inactive) | 26.2 µM (inactive) | 8.97 µM (inactive) | 22 µM (inactive) | 45.4 µM (inactive) | 14 µM (inactive) | 4.82 µM (inactive) | 2.7 µM (inactive) | 14.5 µM (inactive) | 35.4 µM (inactive) | > 10 µM (inactive) | 38.5 µM (inactive) | 6.79 | 9.98 µM (inactive) |  |
| CC1(C)CC[C@]2(C)[C@@H](O)C[C@]3(C)C(=CC[C@@H]4[C@@]5(C)CC[C@H](O)C(C)(C)[C@@H]5CC[C@]43C)[C@@H]2C1 | 7.24 µM (inactive) | 41.5 µM (inactive) | 93.1 µM (inactive) | 16.8 µM (inactive) | 29.4 µM (inactive) | 39.2 µM (inactive) | 40 µM (inactive) | 31.7 µM (inactive) |  | > 100 µM (inactive) | > 100 µM (inactive) | 41.4 µM (inactive) | 93.1 µM (inactive) | 20.3 µM (inactive) | 40.6 µM (inactive) | 81.1 |  | 14.9 µM (inactive) |
| CC1=C2C(=O)OCC23C=COC3(C)O1 (centres undefined) | 31.4 µM (inactive) | 26.9 µM (inactive) | 44.4 µM (inactive) | 18.6 µM (inactive) | 27.9 µM (inactive) | 29.3 µM (inactive) | 34.9 µM (inactive) | 66.7 µM (inactive) | 21.2 µM (inactive) |  | 29 µM (inactive) | 34.3 µM (inactive) | 24.7 µM (inactive) | 35.4 µM (inactive) | 39.4 µM (inactive) | 26.2 | 24.8 µM (inactive) | 46 µM (inactive) |
| C[C@H](CCC1=NCCN1)[C@H]1CC[C@H]2[C@@H]3CC[C@@H]4C[C@H](O)CC[C@]4(C)[C@H]3C[C@H](O)[C@]12C | 18 µM (inactive) | 20.5 µM (inactive) | 18.2 µM (inactive) | 14.9 µM (inactive) | 13.7 µM (inactive) | 10.5 µM (inactive) | > 100 µM (inactive) |  | 13.2 µM (inactive) | 10.8 µM (inactive) | 14.6 µM (inactive) | 16.9 µM (inactive) | 17.4 µM (inactive) | 15.5 µM (inactive) | 15.6 µM (inactive) | 53.1 | 2.37 µM (inactive) | 18 µM (inactive) |
| N#CC1=C(N)N(/N=C/c2ccco2)C(c2ccco2)C1(C#N)C#N (centres undefined) | 10.7 µM (inactive) | 12.7 µM (inactive) | 17.6 µM (inactive) | 19.5 µM (inactive) | 18.9 µM (inactive) | 14.2 µM (inactive) | 25.1 µM (inactive) | 19.6 µM (inactive) | 22.1 µM (inactive) | 3.35 µM (inactive) | 18.4 µM (inactive) | 15.6 µM (inactive) | 20 µM (inactive) | 19.7 µM (inactive) | 17.7 µM (inactive) | 15.3 | 16.8 µM (inactive) | 33.7 µM (inactive) |
| O=C(c1ccco1)N(C(=S)OC12CC3CC(CC(C3)C1)C2)c1ccccc1 | 13.7 µM (inactive) | 19.9 µM (inactive) | 34.5 µM (inactive) | 31.8 µM (inactive) | 26.8 µM (inactive) | 33.5 µM (inactive) | 28.6 µM (inactive) | 32.2 µM (inactive) | 20.2 µM (inactive) | 19.3 µM (inactive) | 29.4 µM (inactive) | 27.1 µM (inactive) | 20.9 µM (inactive) | 31.3 µM (inactive) | 52.8 µM (inactive) | 28.2 | 48.5 µM (inactive) | 23.4 µM (inactive) |
| CCC1(CC)C(=O)NN(C(=O)c2ccc(Cl)cc2)C1=O | > 100 µM (inactive) | > 100 µM (inactive) | > 100 µM (inactive) | > 100 µM (inactive) | 0.23 µM (active) | > 100 µM (inactive) | > 100 µM (inactive) | > 100 µM (inactive) |  | > 100 µM (inactive) | > 100 µM (inactive) | > 100 µM (inactive) | > 100 µM (inactive) | > 100 µM (inactive) | > 100 µM (inactive) | > 100 | > 100 µM (inactive) | > 100 µM (inactive) |
| O=C(O)C/C=C/CC(=O)O | > 100 µM (inactive) | > 100 µM (inactive) | > 100 µM (inactive) | > 100 µM (inactive) | > 100 µM (inactive) | > 100 µM (inactive) | > 100 µM (inactive) | > 100 µM (inactive) |  | > 100 µM (inactive) | > 100 µM (inactive) | > 100 µM (inactive) | > 100 µM (inactive) | > 100 µM (inactive) | > 100 µM (inactive) | > 100 | > 100 µM (inactive) | > 100 µM (inactive) |
| CCOC(=O)c1nc2ccc(C(F)(F)F)cc2nc1Nc1cc(OC)c(OC)c(OC)c1 | > 100 µM (inactive) | > 100 µM (inactive) | > 100 µM (inactive) | > 100 µM (inactive) | > 100 µM (inactive) | > 100 µM (inactive) | > 100 µM (inactive) | > 100 µM (inactive) | > 100 µM (inactive) | > 100 µM (inactive) | > 100 µM (inactive) | > 100 µM (inactive) | > 100 µM (inactive) | > 100 µM (inactive) | > 100 µM (inactive) | > 100 | > 100 µM (inactive) | > 100 µM (inactive) |
| OC(c1ccc(-c2ccccc2)cc1)C(F)(F)c1nc2ccccc2o1 (centres undefined) | 16.4 µM (inactive) | 45.2 µM (inactive) | > 96.4 µM (inactive) | 17.5 µM (inactive) | 91.8 µM (inactive) | > 68.1 µM (inactive) | > 79.8 µM (inactive) | 40.4 µM (inactive) | 31.2 µM (inactive) | 15.5 µM (inactive) | > 100 µM (inactive) | 56.6 µM (inactive) | > 100 µM (inactive) | 34.8 µM (inactive) | 26.5 µM (inactive) | > 100 | 27.8 µM (inactive) | 37.2 µM (inactive) |
| CCCCCc1cc2cc3c(c(O)c2c(=O)[nH]1)C1(CCC3)C(=O)c2c(O)c3c(c(O)c2C1=O)C(=O)C(OC)=CC3=O (centres undefined) | 0.673 µM (active) | 0.561 µM (active) | 0.703 µM (active) | 0.792 µM (active) | 0.468 µM (active) | 0.748 µM (active) | 4.56 µM (inactive) | 1 µM (active) |  | 0.478 µM (active) | 1.41 µM (inactive) | 0.552 µM (active) | 0.908 µM (active) | 0.714 µM (active) | 0.822 µM (active) | 0.42 | 0.906 µM (active) | 2.24 µM (inactive) |
| CC(=O)O[C@H]1C(=O)[C@@]2(C)[C@H]([C@H](OC(=O)c3ccccc3)[C@]3(O)C[C@H](OC(=O)[C@H](O)[C@@H](NC(=O)c4ccc(N(C)C)cc4)c4ccccc4)C(C)=C1C3(C)C)[C@]1(OC(C)=O)CO[C@@H]1C[C@@H]2O | 0.00887 µM (active) | < 0.005 µM (active) | 0.0188 µM (active) | 0.0543 µM (active) |  | < 0.005 µM (active) | 2.21 µM (inactive) | < 0.005 µM (active) | < 0.005 µM (active) | < 0.005 µM (active) | < 0.005 µM (active) | 0.0718 µM (active) | < 0.005 µM (active) | < 0.005 µM (active) | < 0.005 µM (active) | 0.337 | < 0.005 µM (active) | 0.0262 µM (active) |
| CC(C)C[C@H](NC(=O)[C@H](Cc1cccc2ccccc12)NS(=O)(=O)c1cccc2cccnc12)B(O)O | < 0.015 µM (active) | < 0.0133 µM (active) | < 0.0306 µM (active) | < 0.0149 µM (active) | < 0.01 µM (active) | < 0.0165 µM (active) | 2.32 µM (inactive) | 0.0435 µM (active) | < 0.01 µM (active) | < 0.01 µM (active) | < 0.01 µM (active) | 0.0327 µM (active) |  | 0.0557 µM (active) | 0.0445 µM (active) | 0.227 |  | 0.359 µM (active) |
| O=C1Nc2ccccc2/C1=C\c1c(Cl)n(-c2ccccc2)c2ccccc12 | 2.14 µM (inactive) | 2.11 µM (inactive) | 5.93 µM (inactive) | 3.03 µM (inactive) | 2.07 µM (inactive) | 2.43 µM (inactive) | 2.38 µM (inactive) | 3.52 µM (inactive) | 1.87 µM (inactive) | 2.77 µM (inactive) | 1.14 µM (inactive) | 5.75 µM (inactive) | 2.92 µM (inactive) | 2.71 µM (inactive) | 2.79 µM (inactive) | 2.49 | 1.73 µM (inactive) | 4.07 µM (inactive) |
